Experimental data: ChEMBL document CHEMBL1147395, “Three New Toxic Pinolidoxins from Ascochyta pinodes” (J Nat Prod, 1993)
The source made the active and inactive calls. The rule behind the calls is not given here.

Experiments:
Fabaceae = experiment: Phytotoxicity against beans leaves assessed as necrotic lesion at 15 ug/15 ul after 48 hrs by leaf puncture assay; type: functional, organism-based
Artemia salina [1] = experiment: Toxicity in Artemia salina at 50 ug/ml; type: organism-based; conditions: in vivo
Geotrichum candidum = experiment: Antifungal activity against Geotrichum candidum up to 120 ug/ml; type: functional, organism-based
Pisum sativum = experiment: Phytotoxicity against pea leaves assessed as necrotic lesion at 15 ug/15 ul after 48 hrs by leaf puncture assay; type: functional, organism-based; conditions: Lathyrus oleraceus
Artemia salina [2] = experiment: Toxicity in Artemia salina at 5 ug/ml; type: organism-based; conditions: in vivo

| SMILES | Activity (Fabaceae) | Activity (Artemia salina [1]) | Activity (Geotrichum candidum) | Activity (Pisum sativum) | Activity (Artemia salina [2]) |
| --- | --- | --- | --- | --- | --- |
| C/C=C/C=C/C(=O)O[C@H]1CC/C=C/[C@@H](O)[C@H](O)[C@@H](CCC)OC1=O | Toxic | Toxic | inactive | Toxic | Non-toxic |
| C/C=C/C=C/C(=O)O[C@H]1CCCC[C@H](O)[C@H](O)[C@@H](CCC)OC1=O | Toxic |  | inactive | Toxic | Non-toxic |
| C/C=C/C=C/C(=O)O[C@H]1CCC2OC2[C@H](O)[C@H](O)[C@@H](CCC)OC1=O (some centres undefined) |  | Toxic | inactive |  | Non-toxic |
| C/C=C/C=C/C(=O)O[C@H]1CC/C=C/[C@H](O)[C@H](O)[C@@H](CCC)OC1=O [PINOLIDOXIN] |  |  | inactive |  | Non-toxic |
